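1) Cells in 96-well plates. 2) Compound, 48 h, 5 concentrations. 3) Linear interpolation between surrounding doses. 4) Unreached endpoint = highest concentration. TGI: concentration producing complete growth inhibition.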
Columns and labels:
Assay in all cases: NCI anticancer screen, dose series, 48 h
SF-268 CNS = system: SF-268 CNS
SF-295 CNS = system: SF-295 CNS
SR leukemia = system: SR leukemia
UACC-257 melanoma = system: UACC-257 melanoma
IGROV1 ovarian = system: IGROV1 ovarian
SNB-19 CNS = system: SNB-19 CNS
HT29 colon = system: HT29 colon
T-47D breast = system: T-47D breast
RXF 393 renal = system: RXF 393 renal
NCI/ADR-RES ovarian = system: NCI/ADR-RES ovarian
EKVX NSCLC = system: EKVX NSCLC
SK-OV-3 ovarian = system: SK-OV-3 ovarian
A498 renal = system: A498 renal
RPMI-8226 leukemia = system: RPMI-8226 leukemia
786-0 renal = system: 786-0 renal
SNB-75 CNS = system: SNB-75 CNS
CCRF-CEM leukemia = system: CCRF-CEM leukemia
BT-549 breast = system: BT-549 breast
A549 NSCLC = system: A549 NSCLC
UACC-62 melanoma = system: UACC-62 melanoma
MOLT-4 leukemia = system: MOLT-4 leukemia
COLO 205 colon = system: COLO 205 colon
ACHN renal = system: ACHN renal
SK-MEL-5 melanoma = system: SK-MEL-5 melanoma
K-562 leukemia = system: K-562 leukemia
HOP-62 NSCLC = system: HOP-62 NSCLC
NCI-H23 lung = system: NCI-H23 lung
SW-620 colon = system: SW-620 colon
SF-539 CNS = system: SF-539 CNS
HS 578T breast = system: HS 578T breast
HL-60(TB) leukemia = system: HL-60(TB) leukemia
HCT-15 colon = system: HCT-15 colon
TK-10 renal = system: TK-10 renal
OVCAR-8 ovarian = system: OVCAR-8 ovarian
LOX IMVI melanoma = system: LOX IMVI melanoma
CAKI-1 renal = system: CAKI-1 renal
HOP-92 NSCLC = system: HOP-92 NSCLC
U251 CNS = system: U251 CNS
OVCAR-3 ovarian = system: OVCAR-3 ovarian
NCI-H226 lung = system: NCI-H226 lung
MALME-3M melanoma = system: MALME-3M melanoma
NCI-H460 lung = system: NCI-H460 lung
NCI-H522 lung = system: NCI-H522 lung
MCF7 breast = system: MCF7 breast
OVCAR-5 ovarian = system: OVCAR-5 ovarian
HCC-2998 colon = system: HCC-2998 colon
MDA-MB-435 = system: MDA-MB-435
OVCAR-4 ovarian = system: OVCAR-4 ovarian
UO-31 renal = system: UO-31 renal
M14 melanoma = system: M14 melanoma
PC-3 prostate = system: PC-3 prostate
DU-145 prostate = system: DU-145 prostate
KM12 colon = system: KM12 colon
HCT-116 colon = system: HCT-116 colon
SK-MEL-28 melanoma = system: SK-MEL-28 melanoma
SN12C renal = system: SN12C renal
SK-MEL-2 melanoma = system: SK-MEL-2 melanoma
MDA-MB-231 breast = system: MDA-MB-231 breast

`N/C(=N\Nc1cccc(Cl)c1)c1cccnc1` was tested, and the TGI (SF-268 CNS) was > 100 µM, the TGI (SF-295 CNS) was > 100 µM and the TGI (SR leukemia) was 64.9 µM. The TGI (UACC-257 melanoma) was > 81.5 µM, the TGI (IGROV1 ovarian) was > 100 µM and the TGI (SNB-19 CNS) was > 100 µM. The TGI (HT29 colon) was > 83.9 µM, the TGI (T-47D breast) was > 92.6 µM and the TGI (RXF 393 renal) was > 80.3 µM. For the same compound, the TGI (NCI/ADR-RES ovarian) was > 100 µM, the TGI (EKVX NSCLC) was > 100 µM and the TGI (SK-OV-3 ovarian) was > 100 µM. For the same compound, the TGI (A498 renal) was 87.4 µM, the TGI (RPMI-8226 leukemia) was > 89.9 µM and the TGI (786-0 renal) was > 100 µM. For the same compound, the TGI (SNB-75 CNS) was 99.7 µM, the TGI (CCRF-CEM leukemia) was > 100 µM and the TGI (BT-549 breast) was > 100 µM. The TGI (A549 NSCLC) was > 100 µM, the TGI (UACC-62 melanoma) was > 100 µM and the TGI (MOLT-4 leukemia) was > 100 µM. The TGI (COLO 205 colon) was > 72.1 µM, the TGI (ACHN renal) was > 100 µM and the TGI (SK-MEL-5 melanoma) was > 88 µM. For the same compound, the TGI (K-562 leukemia) was > 100 µM, the TGI (HOP-62 NSCLC) was > 100 µM and the TGI (NCI-H23 lung) was > 100 µM. The TGI (SW-620 colon) was > 100 µM, the TGI (SF-539 CNS) was > 60.8 µM and the TGI (HS 578T breast) was > 100 µM. For the same compound, the TGI (HL-60(TB) leukemia) was > 66.9 µM, the TGI (HCT-15 colon) was > 100 µM and the TGI (TK-10 renal) was > 100 µM. The TGI (OVCAR-8 ovarian) was > 100 µM, the TGI (LOX IMVI melanoma) was > 100 µM and the TGI (CAKI-1 renal) was > 100 µM. The TGI (HOP-92 NSCLC) was > 100 µM, the TGI (U251 CNS) was > 100 µM and the TGI (OVCAR-3 ovarian) was > 86.3 µM. For the same compound, the TGI (NCI-H226 lung) was > 100 µM, the TGI (MALME-3M melanoma) was > 100 µM and the TGI (NCI-H460 lung) was > 100 µM. For the same compound, the TGI (NCI-H522 lung) was > 100 µM, the TGI (MCF7 breast) was > 100 µM and the TGI (OVCAR-5 ovarian) was > 100 µM. The TGI (HCC-2998 colon) was > 100 µM, the TGI (MDA-MB-435) was > 30.1 µM and the TGI (OVCAR-4 ovarian) was > 100 µM. For the same compound, the TGI (UO-31 renal) was > 55.7 µM, the TGI (M14 melanoma) was 59.2 µM and the TGI (PC-3 prostate) was > 100 µM. The TGI (DU-145 prostate) was > 100 µM, the TGI (KM12 colon) was > 100 µM and the TGI (HCT-116 colon) was > 100 µM. The TGI (SK-MEL-28 melanoma) was > 100 µM, the TGI (SN12C renal) was > 100 µM and the TGI (SK-MEL-2 melanoma) was > 100 µM. The TGI (MDA-MB-231 breast) was > 100 µM.

Source: PubChem BioAssay (NCI)
